The results in this text go back to PubChem BioAssay (NCI).

“And” between values parts separate entries of the source, which are not always exact repeats. Equal values may be shown once.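 A five-concentration, 48-hour dose response in 96-well plates underlies each endpoint, interpolated linearly between surrounding concentrations. GI50 marks 50% less growth. TGI: total growth inhibition.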 Bounds are passed on as bounds.

Test systems include NCI-H522 lung; SK-OV-3 ovarian; MCF7 breast; RXF 393 renal; OVCAR-4 ovarian; SNB-75 CNS; HCC-2998 colon; TK-10 renal; OVCAR-5 ovarian; BT-549 breast.
Holding throughout (test): NCI anticancer screen, dose series, 48 h

Regarding `O=C(Nc1cccc(-n2cc(-c3ccncc3)c(-c3ccc(Cl)c(O)c3)n2)c1)Nc1ccc(Cl)c(Cl)c1`, the GI50 with NCI-H522 lung was 1.19 µM; in the test with SK-OV-3 ovarian, 1.2 µM; in the test on MCF7 breast, 1.06 µM; with RXF 393 renal, 1 µM; in the test on OVCAR-4 ovarian it was 1.69 µM; in the test with SNB-75 CNS, 1.09 µM. Besides, the GI50 in the test on HCC-2998 colon is 2.89 µM; with TK-10 renal, 1.91 µM; in the test on OVCAR-5 ovarian it was 2.4 µM; in the test on BT-549 breast it was 1.7 µM. For the same molecule, the TGI with NCI-H522 lung was 10.6 µM; with SK-OV-3 ovarian it was greater than 32.5 µM; in the test on MCF7 breast, greater than 32.5 µM; in the test on RXF 393 renal, 6.4 µM; in the test on OVCAR-4 ovarian, greater than 32.5 µM; in the test with SNB-75 CNS, 12.2 µM. Also, the TGI in the test on HCC-2998 colon is 13.9 µM; in the test on TK-10 renal, greater than 32.5 µM; in the test on OVCAR-5 ovarian, greater than 32.5 µM; with BT-549 breast, 16.1 µM.
Turning to `COc1cc(N2CCC(N)CC2)ccc1Nc1ncc(Cl)c(-c2c[nH]c3ccccc23)n1`, the GI50 in the test with NCI-H522 lung was 0.447 µM; in the test with SK-OV-3 ovarian, 0.68 µM; in the test on MCF7 breast, 0.0283 µM; with RXF 393 renal, 0.338 µM; in the test with OVCAR-4 ovarian, 0.235 µM; in the test with SNB-75 CNS, 0.417 µM. In addition, the GI50 is 0.649 µM with HCC-2998 colon, 0.36 µM with TK-10 renal, 0.137 µM in the test with OVCAR-5 ovarian and 1.56 µM in the test on BT-549 breast. For the same molecule, the TGI came out at 1.85 µM with NCI-H522 lung; 2.8 µM in the test with SK-OV-3 ovarian; 1.41 µM in the test on MCF7 breast; 1.41 µM in the test with RXF 393 renal; 3.66 µM in the test with OVCAR-4 ovarian; 1.97 µM in the test with SNB-75 CNS. Further, the TGI with HCC-2998 colon was 2.23 µM; with TK-10 renal, 1.6 µM; in the test on OVCAR-5 ovarian it was 2.11 µM; in the test with BT-549 breast it was 3.39 µM.
With `CCN(CC)CC(O)c1cc(-c2ccc(Cl)cc2)nc2c(C)c(Cl)ccc12` (stereo not given), the GI50 is 1.85 µM with NCI-H522 lung; 1.71 µM with SK-OV-3 ovarian; 1.5 µM in the test with MCF7 breast; 1.71 µM in the test on RXF 393 renal; 1.9 µM in the test with OVCAR-4 ovarian; 1.37 µM in the test on SNB-75 CNS. In addition, the GI50 was 1.77 µM with HCC-2998 colon, 1.85 µM in the test on TK-10 renal, 1.74 µM with OVCAR-5 ovarian and 2.27 µM in the test with BT-549 breast. Further, the TGI turned out to be 3.29 µM with NCI-H522 lung; 3.28 µM in the test with SK-OV-3 ovarian; 2.9 µM with MCF7 breast; 3.14 µM with RXF 393 renal; 3.35 µM with OVCAR-4 ovarian; 2.65 µM with SNB-75 CNS. In addition, the TGI stood at 3.23 µM with HCC-2998 colon, 3.28 µM with TK-10 renal, 3.37 µM in the test with OVCAR-5 ovarian and 4.49 µM with BT-549 breast.
On to `COc1c(B(O)O)cccc1-c1nc2c(F)cc3n[nH]c(C)c3c2c2c1CCCC2`, for which the GI50 was 1.11 µM in the test on NCI-H522 lung; 0.666 µM with SK-OV-3 ovarian; 1.43 µM in the test with MCF7 breast; 0.044 µM in the test on RXF 393 renal; 2.71 µM with OVCAR-4 ovarian; 0.0152 µM in the test with SNB-75 CNS. Also, the GI50 is 2.45 µM with HCC-2998 colon, 0.0215 µM in the test on TK-10 renal, 1.08 µM with OVCAR-5 ovarian and 0.238 µM with BT-549 breast. The TGI in the test on NCI-H522 lung was 8.81 µM; in the test with SK-OV-3 ovarian, 4.71 µM; in the test with MCF7 breast, greater than 50 µM; in the test with RXF 393 renal it was 0.924 µM; in the test on OVCAR-4 ovarian, greater than 42.1 µM; with SNB-75 CNS, 0.168 µM. Moreover, the TGI in the test on HCC-2998 colon is 48.5 µM; with TK-10 renal it was 49.6 µM; in the test with OVCAR-5 ovarian it was greater than 50 µM; in the test on BT-549 breast, 3.14 µM.
`O=C(CCN1CCCN(c2cnc3ccccc3n2)CC1)c1csc2ccccc12`: the GI50 in the test on NCI-H522 lung was 17.3 µM; with SK-OV-3 ovarian, greater than 100 µM; in the test with MCF7 breast, 3.2 µM; in the test on RXF 393 renal, 19.4 µM; with OVCAR-4 ovarian it was 18.5 µM; with SNB-75 CNS, 17.2 µM. In addition, the GI50 with HCC-2998 colon is 16.9 µM; in the test on TK-10 renal, 16.1 µM; in the test with OVCAR-5 ovarian, 28.9 µM; in the test with BT-549 breast, 18.4 µM. For the same molecule, the TGI was 31.7 µM in the test with NCI-H522 lung; greater than 100 µM in the test on SK-OV-3 ovarian; 16.4 µM with MCF7 breast; 37.5 µM in the test on RXF 393 renal; 35.1 µM with OVCAR-4 ovarian; 31.6 µM in the test with SNB-75 CNS. In addition, the TGI in the test on HCC-2998 colon is 33.2 µM; in the test on TK-10 renal, 29.5 µM; in the test with OVCAR-5 ovarian, greater than 100 µM; in the test on BT-549 breast, 32.3 µM.
As to `C=CC(=O)N1CCC[C@@H](n2nc(-c3ccc(Oc4ccccc4)cc3)c3c(N)ncnc32)C1`, the GI50 with NCI-H522 lung was 0.0859 µM; in the test with SK-OV-3 ovarian it was 0.0285 µM; in the test on MCF7 breast it was greater than 8.82 µM; with RXF 393 renal, greater than 5.25 µM; with OVCAR-4 ovarian it was greater than 10 µM; with SNB-75 CNS, greater than 5.6 µM. The GI50 in the test with HCC-2998 colon was greater than 10 µM; in the test on TK-10 renal it was 0.0409 µM; in the test on OVCAR-5 ovarian, greater than 10 µM; with BT-549 breast, greater than 7.69 µM. For the same molecule, the TGI in the test on NCI-H522 lung is greater than 10 µM; with SK-OV-3 ovarian it was greater than 2.42 µM; with MCF7 breast, greater than 10 µM; in the test on RXF 393 renal, greater than 10 µM; with OVCAR-4 ovarian, greater than 10 µM; in the test with SNB-75 CNS, greater than 10 µM. Moreover, the TGI in the test with HCC-2998 colon is greater than 10 µM; in the test with TK-10 renal, 3.14 µM; with OVCAR-5 ovarian, greater than 10 µM; with BT-549 breast, greater than 10 µM.
As to `CC(=O)N[C@@H](Cc1ccc(OP(=O)(O)O)cc1)C(=O)N[C@H]1CCC(=O)N2CCC[C@@H](C(=O)NC3CCc4ccccc43)N2C1=O` (stereo not given in full), the GI50 in the test with NCI-H522 lung, in the test on SK-OV-3 ovarian, in the test on MCF7 breast, with RXF 393 renal, in the test on OVCAR-4 ovarian and in the test with SNB-75 CNS was greater than 25 µM throughout. The GI50 in the test on HCC-2998 colon, in the test on TK-10 renal, in the test with OVCAR-5 ovarian and with BT-549 breast was greater than 25 µM throughout. The TGI in the test with NCI-H522 lung, in the test on SK-OV-3 ovarian, with MCF7 breast, in the test with RXF 393 renal, with OVCAR-4 ovarian and with SNB-75 CNS was greater than 25 µM in each case. Further, the TGI in the test on HCC-2998 colon, in the test with TK-10 renal, with OVCAR-5 ovarian and in the test on BT-549 breast was greater than 25 µM each time.
`CCOc1ccc2c(c1)C(=O)c1c-2n(CCCN=[N+]=[N-])c(=O)c2cc([N+](=O)[O-])ccc12`: the GI50 with NCI-H522 lung was 3.58 µM; with SK-OV-3 ovarian, 5.9 µM; in the test with MCF7 breast, 0.0261 µM; in the test on RXF 393 renal it was 28 µM; in the test on OVCAR-4 ovarian it was 18.9 µM; with SNB-75 CNS it was 17.3 µM. For the same molecule, the GI50 with HCC-2998 colon was 19.1 µM; in the test on TK-10 renal it was 30.8 µM; in the test on OVCAR-5 ovarian, 6.07 µM; in the test on BT-549 breast, 13.1 µM. For the same molecule, the TGI with NCI-H522 lung was 25.8 µM; in the test on SK-OV-3 ovarian, 36.2 µM; with MCF7 breast it was 6.4 µM; in the test with RXF 393 renal, greater than 100 µM; with OVCAR-4 ovarian, greater than 100 µM; in the test on SNB-75 CNS it was 39.9 µM. For the same molecule, the TGI in the test with HCC-2998 colon, in the test on TK-10 renal, with OVCAR-5 ovarian and in the test on BT-549 breast was greater than 100 µM in each case.
Regarding `CC[C@@H](C)/C=C(C)/C=C/C(=O)c1c(O)c(-c2ccc(O)cc2)cn(OC2CC(=O)CCC(C)OC(=O)CC2O)c1=O` (stereo not given in full), the GI50 with NCI-H522 lung was 0.419 µM; with SK-OV-3 ovarian, 0.463 µM; with MCF7 breast it was 0.366 µM; in the test on RXF 393 renal, 0.386 µM; in the test with OVCAR-4 ovarian, 0.233 µM; with SNB-75 CNS, 1.07 µM. Moreover, the GI50 in the test on HCC-2998 colon was 2.53 µM; in the test on TK-10 renal it was 0.442 µM; in the test on OVCAR-5 ovarian it was 2.35 µM; in the test with BT-549 breast it was 0.554 µM. For the same molecule, the TGI in the test with NCI-H522 lung worked out at 11.5 µM; in the test with SK-OV-3 ovarian, 35.6 µM; in the test on MCF7 breast it was 17 µM; in the test with RXF 393 renal, 17.8 µM; in the test on OVCAR-4 ovarian, 26 µM; in the test on SNB-75 CNS it was 19.3 µM. Besides, the TGI in the test on HCC-2998 colon came out at 13.6 µM; with TK-10 renal, 19.9 µM; with OVCAR-5 ovarian, 23.3 µM; in the test with BT-549 breast, 16.2 µM.
Turning to `NC1(C(=O)N[C@@H](CCO)c2ccc(Cl)cc2)CCN(c2ncnc3[nH]ccc23)CC1`, the GI50 with NCI-H522 lung is > 2.05 µM and 17.1 µM; in the test with SK-OV-3 ovarian, 0.306 µM and 0.842 µM; in the test on MCF7 breast it was 0.632 µM and 1.72 µM; in the test with RXF 393 renal, 0.13 µM and 0.354 µM; in the test with OVCAR-4 ovarian it was > 3.08 µM and 33.7 µM; with SNB-75 CNS, 0.245 µM and 0.11 µM. Besides, the GI50 was > 2.1 µM and 8.17 µM in the test on HCC-2998 colon; 1.04 µM and 2.56 µM in the test on TK-10 renal; > 2.22 µM and 9.44 µM with OVCAR-5 ovarian; 0.366 µM and 0.624 µM with BT-549 breast. The TGI is greater than 90.3 µM in the test with NCI-H522 lung; > 3.09 µM and 38.5 µM with SK-OV-3 ovarian; greater than 100 µM in the test with MCF7 breast; 0.69 µM and 5.83 µM with RXF 393 renal; greater than 100 µM with OVCAR-4 ovarian; > 3.28 µM and 2.19 µM with SNB-75 CNS. Besides, the TGI with HCC-2998 colon was greater than 100 µM; in the test with TK-10 renal, greater than 69.7 µM; in the test with OVCAR-5 ovarian, greater than 100 µM; in the test with BT-549 breast it was > 5.01 µM and 13 µM.
